Values of other authors as cited in PubChem BioAssay AID1259409 (Chemical Carcinogenesis Research Information System (CCRIS), 2018).

Tested on: rodent chemically induced tumor inhibition, incidence and multiplicity
Experiment: CCRIS tumor inhibitor studies
Conditions: Route [Inhibitor]: ORAL, Promoter: NONE USED

In the case of CC1=C(/C=C/C(C)=C/C=C/C(C)=C/C(=O)NCCO)C(C)(C)CCC1, the “tumour outcome (control, treated, inhibition, significance)” value (Carcinogen: N-(4-(5-NITRO-2-FURYL)-2-THIAZOLYL)FORMAMIDE, 24554-26-5, Dose [Inhibitor]: 686 MG/KG/D IN DIET FOR 39 WK STARTING 1 WK POST CARCINOGEN TREATMENT (STUDY DURATION: 50 WK), Species: RAT, Strain/Sex: F344/FEMALE, Target Tissue: Type of Lesion: URINARY BLADDER: CARCINOMA, Dose [Carcinogen]: 2 G/KG/D IN DIET FOR 10 WK) is given as 105/200 (53%), 49/100 (49%), 8%, p<0.5657, the “tumour outcome (control, treated, inhibition, significance)” value (Carcinogen: N-(4-(5-NITRO-2-FURYL)-2-THIAZOLYL)FORMAMIDE, 24554-26-5, Dose [Inhibitor]: 686 MG/KG/D IN DIET FOR 39 WK STARTING 1 WK POST CARCINOGEN TREATMENT (STUDY DURATION: 50 WK), Species: RAT, Strain/Sex: F344/FEMALE, Target Tissue: Type of Lesion: URINARY BLADDER: PAPILLOMA, Dose [Carcinogen]: 2 G/KG/D IN DIET FOR 10 WK) is given as 15/200 (7.5%), 17/100 (17%), -127%, p<0.012 and the “tumour outcome (control, treated, inhibition, significance)” value (Carcinogen: N-BUTYL-N-(4-HYDROXYBUTYL)NITROSAMINE, 3817-11-6, Dose [Inhibitor]: 0.5 MMOL/KG DIET DAILY FOR 16 WK STARTING 7 D AFTER FINAL CARCINOGEN DOSE (STUDY DURATION: 6 MO), Species: MOUSE, Strain/Sex: B6D2F1/MALE, Target Tissue: Type of Lesion: URINARY BLADDER: CARCINOMA, Dose [Carcinogen]: 5 OR 10 MG 2/WK FOR 9 WK) is given as 36/97 (37%), 22/75 (29%), 22%, not significant. The “tumour outcome (control, treated, inhibition, significance)” value (Carcinogen: N-BUTYL-N-(4-HYDROXYBUTYL)NITROSAMINE, 3817-11-6, Dose [Inhibitor]: 1 MMOL/KG DIET DAILY FOR 16 WK STARTING 7 D AFTER FINAL CARCINOGEN DOSE (STUDY DURATION: 6 MO), Species: MOUSE, Strain/Sex: B6D2F1/MALE, Target Tissue: Type of Lesion: URINARY BLADDER: CARCINOMA, Dose [Carcinogen]: 5 OR 10 MG 2/WK FOR 9 WK) was 36/97 (37%), 17/77 (22%), 41%, p<0.025, the “tumour outcome (control, treated, inhibition, significance)” value (Carcinogen: N-BUTYL-N-(4-HYDROXYBUTYL)NITROSAMINE, 3817-11-6, Dose [Inhibitor]: 1 MMOL/KG DIET DAILY FOR 108 D STARTING ONE WK AFTER THE FINAL CARCINOGEN DOSE (STUDY DURATION: 171 D), Species: MOUSE, Strain/Sex: BDF1/MALE, Target Tissue: Type of Lesion: URINARY BLADDER: TRANSITIONAL CELL CARCINOMA, Dose [Carcinogen]: 5 MG 2/WK FOR 9 WK) was 31/55 (56%), 19/55 (35%), 38%, p<0.05 and the “tumour outcome (control, treated, inhibition, significance)” value (Carcinogen: N-BUTYL-N-(4-HYDROXYBUTYL)NITROSAMINE, 3817-11-6, Dose [Inhibitor]: 1 MMOL/KG DIET DAILY FOR 159 D STARTING ONE WK AFTER THE FINAL CARCINOGEN DOSE (STUDY DURATION: 216 D), Species: MOUSE, Strain/Sex: BDF1/MALE, Target Tissue: Type of Lesion: URINARY BLADDER: TRANSITIONAL CELL CARCINOMA, Dose [Carcinogen]: 7.5 MG 1/WK FOR 8 WK) was 29/98 (30%), 14/95 (15%), 50%, p<0.05. For the same compound, the “tumour outcome (control, treated, inhibition, significance)” value (Carcinogen: N-BUTYL-N-(4-HYDROXYBUTYL)NITROSAMINE, 3817-11-6, Dose [Inhibitor]: 1.0 MMOL/KG/D IN DIET FOR 108 D STARTING 1 WK POST CARCINOGEN TREATMENT (STUDY DURATION: 171 D), Species: MOUSE, Strain/Sex: DBF1/MALE, Target Tissue: Type of Lesion: URINARY BLADDER: TRANSITIONAL CELL CARCINOMA, Dose [Carcinogen]: 5 MG 2/WK FOR 9 WK) was 31/55 (56%), 19/55 (35%), 38%, p<0.05, the “tumour outcome (control, treated, inhibition, significance)” value (Carcinogen: N-BUTYL-N-(4-HYDROXYBUTYL)NITROSAMINE, 3817-11-6, Dose [Inhibitor]: 1.0 MMOL/KG/D IN DIET FOR 159 D STARTING 1 WK POST CARCINOGEN TREATMENT (STUDY DURATION: 216 D), Species: MOUSE, Strain/Sex: DBF1/MALE, Target Tissue: Type of Lesion: URINARY BLADDER: TRANSITIONAL CELL CARCINOMA, Dose [Carcinogen]: 7.5 MG 1/WK FOR 8 WK) was 29/98 (30%), 14/95 (15%), 50%, p<0.05 and the “tumour outcome (control, treated, inhibition, significance)” value (Carcinogen: N-BUTYL-N-(4-HYDROXYBUTYL)NITROSAMINE, 3817-11-6, Dose [Inhibitor]: 2 MMOL/KG DIET DAILY FOR 17 WK STARTING 7 D AFTER FINAL CARCINOGEN DOSE (STUDY DURATION: 6 MO), Species: RAT, Strain/Sex: F344/MALE, Target Tissue: Type of Lesion: URINARY BLADDER: TRANSITIONAL CELL CARCINOMA, Dose [Carcinogen]: 200 MG 2/WK FOR 8 WK) was 55/60 (92%), 19/30 (63%), 32%, p<0.01. For the same compound, the “tumour outcome (control, treated, inhibition, significance)” value (Carcinogen: N-BUTYL-N-(4-HYDROXYBUTYL)NITROSAMINE, 3817-11-6, Dose [Inhibitor]: 2 MMOL/KG DIET DAILY FOR 19 WK STARTING 7 D AFTER FINAL CARCINOGEN DOSE (STUDY DURATION: 6 MO), Species: RAT, Strain/Sex: F344/FEMALE, Target Tissue: Type of Lesion: URINARY BLADDER: TRANSITIONAL CELL CARCINOMA, Dose [Carcinogen]: 150 MG 2/WK FOR 6 WK) was 28/80 (35%), 5/40 (12%), 66%, p<0.01 and the “tumour outcome (control, treated, inhibition, significance)” value (Carcinogen: N-METHYL-N-NITROSOUREA, 684-93-5, Dose [Inhibitor]: 2 MMOL/KG DIET DAILY STARTING 12 D AFTER CARCINOGEN TREATMENT THROUGH ABOUT 8 MO AFTER CARCINOGEN DOSE (STUDY DURATION:, Species: RAT, Strain/Sex: F344/MALE, Target Tissue: Type of Lesion: COLON: ADENOCARCINOMA, Dose [Carcinogen]: 2.5 MG 1/WK FOR 2 WK) was 5/39 (13%), 5/30 (17%), -31%, not significant.
